As usually defined, the IC50 is the concentration that inhibits the measured activity by half. By inhibition is commonly meant the relative decrease from the control value, in per cent.

From US8901138B2, “Sulfoximine substituted quinazolines for pharmaceutical compositions” (Boehringer Ingelheim International GmbH, priority 2012, dated 2014) come the findings set out here.

MNK1a, sequence (Q9BUB5 1-424 isoform Q9BUB5-2): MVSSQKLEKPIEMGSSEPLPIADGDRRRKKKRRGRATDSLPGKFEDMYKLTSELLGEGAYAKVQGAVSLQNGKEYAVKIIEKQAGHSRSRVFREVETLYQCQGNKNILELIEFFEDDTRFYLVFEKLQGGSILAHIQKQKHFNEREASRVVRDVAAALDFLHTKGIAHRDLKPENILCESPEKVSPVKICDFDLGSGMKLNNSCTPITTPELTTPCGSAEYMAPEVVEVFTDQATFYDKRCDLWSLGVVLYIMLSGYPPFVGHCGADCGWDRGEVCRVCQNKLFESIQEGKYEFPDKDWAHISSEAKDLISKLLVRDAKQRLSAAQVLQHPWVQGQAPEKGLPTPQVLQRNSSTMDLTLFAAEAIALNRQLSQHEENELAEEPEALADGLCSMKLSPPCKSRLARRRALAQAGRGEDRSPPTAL

The target in the first assay is T1, MNK2a (Homo sapiens, UniProt Q9HBH9).
T1 construct: made in house
T1 sequence (Q9HBH9 whole entry): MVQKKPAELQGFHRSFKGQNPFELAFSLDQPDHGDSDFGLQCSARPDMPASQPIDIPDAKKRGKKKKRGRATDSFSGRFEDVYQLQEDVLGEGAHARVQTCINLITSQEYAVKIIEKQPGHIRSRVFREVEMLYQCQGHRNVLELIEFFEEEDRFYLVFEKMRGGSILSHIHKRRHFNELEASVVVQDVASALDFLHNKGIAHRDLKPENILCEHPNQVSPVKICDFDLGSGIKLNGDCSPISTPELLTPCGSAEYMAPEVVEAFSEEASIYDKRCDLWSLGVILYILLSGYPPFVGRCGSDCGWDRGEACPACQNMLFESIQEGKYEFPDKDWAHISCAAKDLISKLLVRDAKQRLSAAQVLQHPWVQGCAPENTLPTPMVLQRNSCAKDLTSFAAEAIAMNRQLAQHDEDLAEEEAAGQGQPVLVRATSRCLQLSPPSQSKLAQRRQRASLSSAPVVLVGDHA
Nature of the assay: MNK2a in vitro kinase assay (assay 1), ADP-Glo. Format: biochemical. As to conditions: preactivated GST-MNK2a, 20 μM ATP, read-out: MNK2 IC50. The method, boiled down: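 Preactivated GST-MNK2a (10 nM) with eIF4E peptide (25 μM) and ATP (20 μM) in HEPES/DTT/MgCl2 buffer, 90 min at room temperature, final DMSO <3%. ADP formed read by ADP-Glo luminescence and normalised to vehicle and 20 μM reference-inhibitor controls; IC50 from dose-response curves.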
`CC(C)(C)OC(=O)N1CCC[C@@H](Oc2cc(F)ccc2Nc2ncnc3cc(N=S(C)(C)=O)cc(F)c23)C1` [Example 2.13]: the IC50 was found to be 39 nM.

On to `Cc1cc(N=S(C)(=O)C(C)C)cc2ncnc(Nc3ccc(F)cc3O[C@@H]3CO[C@@H]4CCO[C@@H]43)c12` (stereo partly shown) [Example 2.109], for which the IC50 was determined as 2 nM.

Consider `Cc1cc(N=S(C)(C)=O)cc2ncnc(Nc3ccccc3OC3CCOCC3)c12` [Example 1.12], for which the IC50 is 21 nM.

Regarding `CS(C)(=O)=Nc1cc(F)c2c(Nc3cccnc3O[C@@H]3CCCNC3)ncnc2c1` [Example 3.1], the IC50 is 111 nM.

On to `CO[C@H]1CC[C@H](Oc2cc(F)ccc2Nc2ncnc3cc(N=S4(=O)CCOCC4)cc(C)c23)CC1` [Example 2.17], for which the IC50 turned out to be 4 nM.

On to `Cc1cc(N=S(C)(C)=O)cc2ncnc(Nc3ccc(F)cc3O[C@@H]3CO[C@H]4[C@@H]3OC[C@@H]4C#N)c12` [Example 2.61], for which the IC50 came to 2 nM.

For the molecule `Cc1cc(N=S(C)(C)=O)cc2ncnc(Nc3ccc(F)cc3OC3(C(F)(F)F)CCC3)c12` [Example 1.30], the IC50 amounted to 2 nM.

Take `CNC(=O)N1CCS(=O)(=Nc2cc(C)c3c(Nc4ccc(F)cc4O[C@H]4CC[C@H](OC)CC4)ncnc3c2)CC1` [Example 7.4]: the IC50 stood at 7 nM.

As for `Cc1cc(N=S(C)(C)=O)cc2ncnc(Nc3cccnc3O[C@H]3CC[C@H](O)CC3)c12` [Example 2.31], the IC50 was determined as 2 nM.

In the case of `COC1CCCC(Oc2cc(F)ccc2Nc2ncnc3cc(N=S(C)(C)=O)cc(C)c23)C1` (racemic) [Example 4.12], the IC50 is 14 nM.

`CO[C@@H]1CO[C@H]2[C@@H]1OC[C@H]2Oc1cc(F)ccc1Nc1ncnc2cc(N=S(C)(C)=O)cc(Br)c12` [Example 1.20]: the IC50 was found to be 1 nM.

On to `Cc1cc(N=S2(=O)CCC(O)CC2)cc2ncnc(Nc3ccc(F)cc3O[C@@H]3CO[C@@H]4CCO[C@@H]43)c12` (stereo partly shown) [Example 2.94], for which the IC50 stood at 1 nM.

As to `CS(C)(=O)=Nc1cc(F)c2c(Nc3cccnc3O[C@H]3CC[C@H](N)CC3)ncnc2c1` [Example 3.5], the IC50 was determined as 5 nM.

As for `Cc1cc(N=S(C)(C)=O)cc2ncnc(Nc3ccc(F)cc3O[C@@H]3CCN(CCO)C3)c12` [Example 6.17], the IC50 was determined as 23 nM.

With `Cc1cc(N=S(C)(C)=O)cc2ncnc(Nc3ccc(F)cc3O[C@@H]3CCCN(CCC#N)C3)c12` [Example 6.20], the IC50 was determined as 4 nM.

Regarding `Cc1cc(N=S(C)(C)=O)cc2ncnc(Nc3ccc(F)cc3O[C@@H]3CO[C@@H]4CCO[C@@H]43)c12` [Example 2.121], the IC50 stood at 4 nM.

`Cc1cc(N=S2(=O)CCCC2)cc2ncnc(Nc3ccc(F)cc3O[C@@H]3CCN(S(C)(=O)=O)C3)c12` [Example 6.18]: the IC50 came out at 1 nM.

With `Cc1cc(N=S2(=O)CCCC2)cc2ncnc(Nc3ccc(F)cc3O[C@@H]3CO[C@@H]4OCC[C@@H]43)c12` (racemic) [Example 2.82], the IC50 is 5 nM.

For the molecule `CO[C@H]1CC[C@H](Oc2cc(F)ccc2Nc2ncnc3cc(N=S4(=O)CCOCC4)cc(F)c23)CC1` [Example 2.56], the IC50 was determined as 11 nM.

As to `Cc1cc(N=S(C)(=O)C2CCOCC2)cc2ncnc(Nc3ccc(F)cc3O[C@@H]3CO[C@@H]4CCO[C@@H]43)c12` (stereo partly shown) [Example 2.99], the IC50 stood at 5 nM.

For the molecule `CS(C)(=O)=Nc1cc(N2CCC2)c2c(Nc3ccc(F)cc3O[C@H]3CCOC3)ncnc2c1` [Example 1.19], the IC50 worked out at 106 nM.

For the molecule `CCS(=O)(CC)=Nc1cc(C)c2c(Nc3ccc(F)cc3O[C@H]3CC[C@H](OC)CC3)ncnc2c1` [Example 2.12], the IC50 was found to be 13 nM.

As to `Cc1cc(N=S(C)(C)=O)cc2ncnc(Nc3cccnc3O[C@H]3CC[C@H](NC(=O)OC(C)(C)C)CC3)c12` [Example 2.10], the IC50 turned out to be 4 nM.

The target in a further assay is MNK1a (Homo sapiens, UniProt Q9BUB5). Put plainly: MNK1 in vitro kinase assay (assay 2), Z'-LYTE. Type of assay: biochemical. As to conditions: compound concentration of 1 μM. In a few lines:
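Pre-activated GST-MNK1a (13.5-54 ng) with 2 μM Ser/Thr 07 FRET peptide in 50 mM HEPES pH 7.5, 10 mM MgCl2, 2 mM MnCl2, 1 mM EGTA, 1 mM DTT, 1% DMSO; 1 h kinase then 1 h development at room temperature. Coumarin/fluorescein emission ratio gives % phosphorylation; sigmoidal dose-response fit.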
On to `CC(C)(C)OC(=O)N1CCC[C@@H](Oc2cc(F)ccc2Nc2ncnc3cc(N=S(C)(C)=O)cc(F)c23)C1` [Example 2.13], for which the inhibition at 1 µM is 73%.

`Cc1cc(N=S(C)(=O)C(C)C)cc2ncnc(Nc3ccc(F)cc3O[C@@H]3CO[C@@H]4CCO[C@@H]43)c12` (stereo partly shown) [Example 2.109]: the inhibition at 1 µM turned out to be 100%.

Regarding `Cc1cc(N=S(C)(C)=O)cc2ncnc(Nc3ccccc3OC3CCOCC3)c12` [Example 1.12], the inhibition at 1 µM was found to be 92%.

For `CS(C)(=O)=Nc1cc(F)c2c(Nc3cccnc3O[C@@H]3CCCNC3)ncnc2c1` [Example 3.1], the inhibition at 1 µM came to 50%.

Take `CO[C@H]1CC[C@H](Oc2cc(F)ccc2Nc2ncnc3cc(N=S4(=O)CCOCC4)cc(C)c23)CC1` [Example 2.17]: the inhibition at 1 µM was 91%.

Consider `Cc1cc(N=S(C)(C)=O)cc2ncnc(Nc3ccc(F)cc3O[C@@H]3CO[C@H]4[C@@H]3OC[C@@H]4C#N)c12` [Example 2.61], for which the inhibition at 1 µM worked out at 98%.

Consider `Cc1cc(N=S(C)(C)=O)cc2ncnc(Nc3ccc(F)cc3OC3(C(F)(F)F)CCC3)c12` [Example 1.30], for which the inhibition at 1 µM turned out to be 89%.

For `CNC(=O)N1CCS(=O)(=Nc2cc(C)c3c(Nc4ccc(F)cc4O[C@H]4CC[C@H](OC)CC4)ncnc3c2)CC1` [Example 7.4], the inhibition at 1 µM was found to be 88%.

On to `Cc1cc(N=S(C)(C)=O)cc2ncnc(Nc3cccnc3O[C@H]3CC[C@H](O)CC3)c12` [Example 2.31], for which the inhibition at 1 µM worked out at 100%.

Take `COC1CCCC(Oc2cc(F)ccc2Nc2ncnc3cc(N=S(C)(C)=O)cc(C)c23)C1` (racemic) [Example 4.12]: the inhibition at 1 µM came to 84%.

On to `CO[C@@H]1CO[C@H]2[C@@H]1OC[C@H]2Oc1cc(F)ccc1Nc1ncnc2cc(N=S(C)(C)=O)cc(Br)c12` [Example 1.20], for which the inhibition at 1 µM was determined as 100%.

For `Cc1cc(N=S2(=O)CCC(O)CC2)cc2ncnc(Nc3ccc(F)cc3O[C@@H]3CO[C@@H]4CCO[C@@H]43)c12` (stereo partly shown) [Example 2.94], the inhibition at 1 µM is 98%.

In the case of `CS(C)(=O)=Nc1cc(F)c2c(Nc3cccnc3O[C@H]3CC[C@H](N)CC3)ncnc2c1` [Example 3.5], the inhibition at 1 µM stood at 101%.

`Cc1cc(N=S(C)(C)=O)cc2ncnc(Nc3ccc(F)cc3O[C@@H]3CCN(CCO)C3)c12` [Example 6.17]: the inhibition at 1 µM was 79%.

With `Cc1cc(N=S(C)(C)=O)cc2ncnc(Nc3ccc(F)cc3O[C@@H]3CCCN(CCC#N)C3)c12` [Example 6.20], the inhibition at 1 µM came out at 93%.

For the molecule `Cc1cc(N=S(C)(C)=O)cc2ncnc(Nc3ccc(F)cc3O[C@@H]3CO[C@@H]4CCO[C@@H]43)c12` [Example 2.121], the inhibition at 1 µM came out at 89%.

As to `Cc1cc(N=S2(=O)CCCC2)cc2ncnc(Nc3ccc(F)cc3O[C@@H]3CCN(S(C)(=O)=O)C3)c12` [Example 6.18], the inhibition at 1 µM was 98%.

Consider `Cc1cc(N=S2(=O)CCCC2)cc2ncnc(Nc3ccc(F)cc3O[C@@H]3CO[C@@H]4OCC[C@@H]43)c12` (racemic) [Example 2.82], for which the inhibition at 1 µM was found to be 88%.

As to `CO[C@H]1CC[C@H](Oc2cc(F)ccc2Nc2ncnc3cc(N=S4(=O)CCOCC4)cc(F)c23)CC1` [Example 2.56], the inhibition at 1 µM stood at 76%.

As to `Cc1cc(N=S(C)(=O)C2CCOCC2)cc2ncnc(Nc3ccc(F)cc3O[C@@H]3CO[C@@H]4CCO[C@@H]43)c12` (stereo partly shown) [Example 2.99], the inhibition at 1 µM is 96%.

Take `CS(C)(=O)=Nc1cc(N2CCC2)c2c(Nc3ccc(F)cc3O[C@H]3CCOC3)ncnc2c1` [Example 1.19]: the inhibition at 1 µM was determined as 42%.

In the case of `CCS(=O)(CC)=Nc1cc(C)c2c(Nc3ccc(F)cc3O[C@H]3CC[C@H](OC)CC3)ncnc2c1` [Example 2.12], the inhibition at 1 µM was found to be 24%.

For the molecule `Cc1cc(N=S(C)(C)=O)cc2ncnc(Nc3cccnc3O[C@H]3CC[C@H](NC(=O)OC(C)(C)C)CC3)c12` [Example 2.10], the inhibition at 1 µM was determined as 92%.
